Earlier results on 1 molecule are cited in US20050244357A1, “Oil-containing emulsifiable formulations containing active agents” (priority 2004, published 2005).

The series deals with thrips. As to conditions: cotton, applied alone.

Consider `CNC(=O)CSP(=S)(OC)OC` [Dimethoate], for which the control of thrips entry is on record as “good control”.
